PMC5851651, “Population-specific design of de-immunized protein biotherapeutics” (PLoS Computational Biology, 2018)

Experiments:
DRB1*03:01 = target: T1, DRB1*03:01 (Homo sapiens, UniProt P01903+P01911, A100K/A102G/A103R/A169T/F55Y/I96L/K41T/L162R/M171V/P40S/Q125H/Q178H/Q39Y/R42S/S66N/T106N/T262R/W38E/Y61H); test: REVEAL HLA-Peptide binding assay (ProImmune); details: score relative to high-affinity control peptide, percentage of the control signal
T1 construct: purchased ProImmune
Method: (§1) To test the designs, we synthesized twenty overlapping 15-mer peptides containing the introduced mutations and their wild-type counterparts. The peptides maximally covered the predicted epitopes around the mutations of all designed constructs that contained one and two mutations (Supplementary S2 Table). The affinity of these peptides to the three HLA alleles was measured at time zero and after 24 hours (Methods, Supplementary S3 and S4 Tables). We linearly combined the measured relative affinity scores across HLA alleles weighted by their allele frequencies for each peptide respectively to produce a score that approximates the overall immunogenicity (Fig 5A). Results are presented for measurements taken at time point zero. […] Overall, the measured and predicted immunogenicity of the tested peptides correlated well with r = 0.76 (CI95 = [0.48, 0.91], t = 4.885, df = 17, p-value = 1.4e-4; Fig 5A). Next, we compared the predicted and measured gain or loss in immunogenicity for the whole region by reconstructing the targeted region using overlapping peptides. The measured relative scores were linearly combined (as previously) and then normalized to the number of overlapping peptides used in the reconstruction (Fig 5B). The difference in the measured scores between the wild type and mutant regions can be thought of as a proxy for gain or loss in immunogenicity and correlated well to the predicted changes (r = 0.86, CI95 = [0.40, 0.97], t = 4.136, df = 6, p-value = 6.1e-3; Fig 5B).
(§2) In order to experimentally verify our in silico predictions for Factor VIII, we utilized the commercial REVEAL HLA-Peptide binding assay of ProImmune (www.proimmune.com). Peptides were synthesized using the PEPscreen custom library synthesis method, yielding high purity peptides for experimental analysis. HLA-peptide binding was assessed for the three HLA-DRB1 alleles used in this study (DRB1*15:01, DRB1*03:01 and DRB1*07:01). In short, the method compares the affinity of the studied peptide to the affinity of a high-affinity control peptide. Each peptide is then scored for binding to a certain HLA molecule relative to the score of the control peptide and reported as the percentage of the signal generated by the control peptide.

DRB1*07:01 = DRB1*07:01 (Homo sapiens, UniProt P01903+P01911, A100R/A102G/A103Q/D57E/D86V/E43K/F76Y/K127E/L162R/M171V/P40G/Q125H/Q99D/R33Q/R42Y/R54Q/S133A/S66F/T210M/V115G/Y107V/Y59L/Y89S); test: REVEAL HLA-Peptide binding assay (ProImmune); details: score relative to high-affinity control peptide, percentage of the control signal
Method: as §1, §2

DRB1*15:01 = target: T2, DRB1*15:01 (Homo sapiens, UniProt P01903+P01911); test: REVEAL HLA-Peptide binding assay (ProImmune); details: score relative to high-affinity control peptide, percentage of the control signal
T2 construct: purchased ProImmune
Method: as §1, §2

[1] = system: DRB1*15:01, DRB1*03:01 and DRB1*07:01; test: Experimental immunogenicity score: relative HLA binding combined across alleles, weighted by allele frequency; design: species or system human; key: allele-frequency-weighted sum of binding, % of control peptide signal; details: for Difference to WT (Experimental Score): per peptide against wild-type counterpart; for Experimental Score: per peptide, weights DRB1*15:01 0.162, DRB1*07:01 0.146, DRB1*03:01 0.143
Method: as §1
Fig 5 (A) Correlation of experimental and predicted immunogenicity of each peptide. The experimental immunogenicity score of a peptide is defined as the linear combination of the individual experimentally determined relative HLA binding affinity of each HLA allele h ∈ H weighted by the HLA allele frequency. (B) Correlation of experimental and predicted immunogenicity of the whole redesigned region. The summarized immunogenicity score of the whole region is the linear combination of the overlapping peptides used to reconstruct the region, normalized by total number of peptides used. The predicted immunogenicity scores per peptide were computed according to our immunogenicity objective function. The red lines are a fitted linear regression and the red tubes represent their 95-confidence interval.
as §2

[2] = time 0 (H0), listed as YTRYLRIHPQSWEHQ
[3] = time 0 (H0), listed as VNSLDPPLYTRYLRI
[4] = time 0 (H0), listed as LTRLLRIHPQSWEHQ
[5] = time 0 (H0), listed as FTRYLRIHPQSWVHH
[6] = time 0 (H0), listed as VNSLDPPLLTRYLRI
[7] = time 0 (H0), listed as LRIHPQSWVHHIALRM

Sequence	DRB1*03:01 (DRB1*03:01; after 24 hours (H24)) [%]	DRB1*03:01 (DRB1*03:01; time 0 (H0)) [%]	DRB1*07:01 (DRB1*07:01; after 24 hours (H24)) [%]	DRB1*07:01 (DRB1*07:01; time 0 (H0)) [%]	DRB1*15:01 (DRB1*15:01; after 24 hours (H24)) [%]	DRB1*15:01 (DRB1*15:01; time 0 (H0)) [%]	Difference to WT (Experimental Score) ([1]; after 24 hours (H24))	Experimental Score ([1]; after 24 hours (H24))	Difference to WT (Experimental Score) ([1]; time 0 (H0))	Experimental Score ([1]; time 0 (H0))	other results
YTRYLRIHPQSWEHQ [Design M-12, peptide covering L2321Y, V2333E]	0.200	0.155	40.700	59.728	0.700	3.876	-7.303	6.084	-8.351	9.370	DRB1*03:01 (DRB1*03:01; [2]): 0.2%; DRB1*07:01 (DRB1*07:01; [2]): 59.7%; DRB1*15:01 (DRB1*15:01; [2]): 3.9%
VNSLDPPLYTRYLRI [Design M-3, peptide covering L2321Y]	0.000	0.000	0.900	3.600	0.000	0.000	0.077	0.131	-0.871	0.526	DRB1*03:01 (DRB1*03:01; [3]): 0%; DRB1*07:01 (DRB1*07:01; [3]): 3.6%; DRB1*15:01 (DRB1*15:01; [3]): 0%
LTRLLRIHPQSWEHQ [Design M-7, peptide covering Y2324L, V2333E]	0.000	0.026	20.100	33.528	0.100	5.445	-10.436	2.951	-11.941	5.781	DRB1*03:01 (DRB1*03:01; [4]): 0%; DRB1*07:01 (DRB1*07:01; [4]): 33.5%; DRB1*15:01 (DRB1*15:01; [4]): 5.4%
FTRYLRIHPQSWVHH [Design M-13, peptide covering L2321F, Q2335H]	0.000	1.449	29.800	39.809	7.500	16.564	-7.821	5.566	-9.019	8.703	DRB1*03:01 (DRB1*03:01; [5]): 1.4%; DRB1*07:01 (DRB1*07:01; [5]): 39.8%; DRB1*15:01 (DRB1*15:01; [5]): 16.6%
RIHPQSWVHHIALRM [Design M-4, peptide covering Q2335H]	0.000	0.005	53.300	75.329	0.000	9.756	2.595	7.782	5.857	12.579	–
RIHPQSWVHQIALRM [WT-2, wild-type peptide of Factor VIII C2 domain, reference compound]	0.000	0.226	35.522	40.243	0.00277	5.029	–	5.187	–	6.723	–
LTRYLKIHPQSWEHQ [Design M-9, peptide covering R2326K, V2333E]	0.000	1.668	17.900	28.951	0.300	5.434	-10.725	2.662	-12.376	5.346	–
VNSLDPPLLTRYLRI [WT-1, wild-type peptide of Factor VIII C2 domain, reference compound]	0.000	0.697	0.370	0.810	0.000	7.274	–	0.054	–	1.396	DRB1*03:01 (DRB1*03:01; [6]): 0.7%; DRB1*07:01 (DRB1*07:01; [6]): 0.8%; DRB1*15:01 (DRB1*15:01; [6]): 7.3%
LRIHPQSWVHHIALRM [Design M-5, peptide covering Q2335H]	0.000	0.555	40.700	65.265	20.400	47.784	0.870	9.247	0.779	17.349	DRB1*03:01 (DRB1*03:01; [7]): 0.6%; DRB1*07:01 (DRB1*07:01; [7]): 65.3%; DRB1*15:01 (DRB1*15:01; [7]): 47.8%
